Data taken from EP0098136A2, “Primary and secondary alcohol dehydrogenase enzymes and the use thereof” (priority 1982, dated 1984).
“Also recorded” adds a separate entry of the source. Like-named read-outs stand apart in the source and are kept apart here. Blank lines part the entries; values can stand above or below the compound they belong to.

Legend:
[1] = tested on: secondary alcohol dehydrogenase enzyme; assay: Substrate and cofactor specificity of the purified enzyme; type: biochemical, Pseudomonas fluorescens NRRL B-1244; conditions: for oxidation rate / activity as substrate (in words): purified enzyme, NAD^+
Protocol: The rate of dehydrogenation of the primary and secondary alcohols tested was measured with a fluorescence spectrophotometer by following the formation of reduced NAD^+ (excitation at 340 nm, emission at 460 nm). […] The reaction was initiated by the addition of the substrate alcohol. The product aldehydes or ketones were identified by retention time comparisons and cochromatography with authentic standards using flame ionization gas chromatography (a stainless steel column was maintained isothermally at 110 °C). Specific oxidation rates were expressed as nmoles of product formed per min. per mg of protein.
The purified enzyme from step 5 of Example 2 was used in the procedure of Example 1 to oxidize primary and secondary alcohols, diols and aldehydes. The specificity of the dehydrogenase for the substrates is expressed as nmoles of product formed per min. per 85 µg of protein and as a percentage relative to the oxidation rate of 2-propanol (designated as 100% oxidation rate) in Table V.

[2] = tested on: secondary alcohol dehydrogenase enzyme; type: biochemical, Pseudomonas fluorescens NRRL B-1244
Protocol: The effect of NAD^+ and 2-propanol concentrations on the enzyme activity was studied at 25 °C in 0.05 M sodium phosphate buffer pH 7.0. 2-Propanol was kept at a saturated level (6.6 mM) for the determination of the Km value for NAD^+; and NAD^+ was maintained at a saturated level (lmM) for determining the Km value for 2-propanol.

[3] = tested on: secondary alcohol dehydrogenase enzyme; assay: Inhibition of secondary alcohol dehydrogenase activity (oxidation of 2-propanol in the presence of potential inhibitors); type: biochemical, Pseudomonas fluorescens NRRL B-1244
Protocol: The activity of the NAD^+-linked secondary alcohol dehydrogenase in each fraction was measured using a fluorescence spectrophotometer by monitoring the formation of reduced NAD^+ (excitation at 340 nm, emission at 460 nm). The assay system (3 ml) contained 150 µmole sodium phosphate buffer pH 7.0, 1.0 µmole NAD^+, a given amount of enzyme fraction, and 20 µ cmole 2-propanol substrate. […] Protein concentrations in each fraction were determined by the method of O.H. Lowry et al., J. Biol. Chem., 193, 255 (1951).
The oxidation of 2-propanol by the purified extract of secondary alcohol dehydrogenase enzyme was conducted in the presence of a lmM concentration of one of the metal chelating agents and thio-reagents listed in Table VI.

[4] = tested on: secondary alcohol dehydrogenase
[5] = 1 mM inhibitor, oxidation of 2-propanol by purified enzyme

- oxidation rate with NADP^+ as cofactor relative to NAD^+ ([1]; NADP^+ as cofactor): about 50%
Compound: NC(=O)c1ccc[n+]([C@@H]2O[C@H](COP(=O)([O-])OP(=O)(O)OC[C@H]3O[C@@H](n4cnc5c(N)ncnc54)[C@H](OP(=O)(O)O)[C@@H]3O)[C@@H](O)[C@H]2O)c1 [NADP^+]

Compound: NC(=O)c1ccc[n+]([C@@H]2O[C@H](COP(=O)([O-])OP(=O)(O)OC[C@H]3O[C@@H](n4cnc5c(N)ncnc54)[C@H](O)[C@@H]3O)[C@@H](O)[C@H]2O)c1 [NAD^+, nicotinamide adenine dinucleotide]
- Km ([2]; 25°C, 0.05 M sodium phosphate buffer pH 7.0, 2-propanol saturated (6.6 mM), read-out: Km value for NAD^+): 8.2 µM

- % Inhibition [3, 5]: 0%
Compound: CC(N)=O [acetamide]

Compound: O=C(O)c1cc(SSc2ccc([N+](=O)[O-])c(C(=O)O)c2)ccc1[N+](=O)[O-] [5,5'-dithiobis-(2-nitrobenzoate)]
- inhibition of enzyme activity (in words) [3]: inhibited
- % Inhibition [3, 5]: 100%

Compound: [Hg+2] [Hg^2+]
- % Inhibition [3, 5]: 100%

Compound: CC(O)CCO (stereo not shown) [1,3-butanediol]
- oxidation rate / activity as substrate (in words) [1]: highest activity

Compound: [Cu+2] [Cu^2+]
- % Inhibition [3, 5]: 10%

Compound: O=C(O)CI [iodoacetic acid]
- % Inhibition [3]: 0%

Compound: CCC(C)O (stereo not shown) [2-butanol]
- % of original activity ([4]; 0.9 M 2-butanol solution): 40%
- % of its activity ([4]; 1.1 M 2-butanol solution): 30%
- oxidation rate / activity as substrate (in words) [1]: highest oxidation rate; also recorded: highest activity

Compound: O=C(O)c1cc[c]([Hg+])cc1.[OH-] [p-hydroxymercuribenzoate]
- inhibition of enzyme activity (in words) [3]: inhibited
- % Inhibition [3, 5]: 100%

Compound: CC(C)=O [acetone]
- rate of reduction of acetone to propanol relative to the forward reaction [1]: about 20%

- % Inhibition [3, 5]: 0%
Compound: O=C(O)CN(CCN(CC(=O)O)CC(=O)O)CC(=O)O [ethylenediamine tetraacetic acid (EDTA), ethylenediamine tetraacetic acid]

Compound: O=[N+]([O-])c1ccc(O)c2ncccc12 [5-nitro-8-hydroxyquinoline]
- inhibition of enzyme activity (in words) [3]: inhibited
- % Inhibition [3, 5]: 100%

Compound: CCN1C(=O)C=CC1=O [N-ethylmaleimide]
- % Inhibition [3, 5]: 33%

- % Inhibition [3, 5]: 100%
Compound: c1cnc2c(c1)ccc1cccnc12 [1,10-phenanthroline]

- % Inhibition [3, 5]: 0%
Compound: c1c[nH]cn1 [imidazole]

- % Inhibition [3, 5]: 44%
Compound: NNC(N)=S [thiosemicarbazide]

Compound: CC(C)O [2-propanol]
- Km ([2]; pH 7, read-out: Km value for 2-propanol): 85 µM
- oxidation rate / activity as substrate (in words) [1]: highest activity

Compound: c1ccc(-c2ccccn2)nc1 [α,α'-dipyridyl]
- % Inhibition [3, 5]: 40%
